Measured values as given in patent US8791263B2, “Cortistatin A analog and use thereof” (Osaka University, priority 2010, dated 2014).
Read-outs that look alike come from different tables or passages of the source.

Tests used:
[1] = tested on: Matrigel with proangiogenic factor bFGF (angiogenesis); assay: in vivo anti-angiogenic activity after intraperitoneal administration (Matrigel, hemoglobin); conditions: not less than 10 mg/kg, once every two days, 5 times, ddY mice
Procedure: (§1) The test compound CA-1 was suspended at predetermined concentrations in 1% CMC. To control groups, the vehicle (1% CMC) was administered.
(§2) To 500 μL of Matrigel (trade name, manufactured by BD), 200 ng/mL of a proangiogenic factor bFGF (basic fibroblast growth factor) and 100 U/mL of heparin were added, and the mixture was subcutaneously injected into the flanks of female ddY mice (6-week old) with an injection needle of 23G. After the Matrigel injection, the test compound CA-1 or the vehicle (1% CMC) was intraperitoneally administered on a schedule of once every two days, 5 times in total. Aside from this, Matrigel without bFGF was injected into a group of mice and then the vehicle was administered thereto (negative control group). The anti-angiogenic effect was evaluated as follows: the day after the final administration of the test compound, the implanted Matrigel was harvested and weighed, and then the amount of hemoglobin accumulated in the Matrigel was compared between the test compound administration groups and the control groups. Significance analysis was performed using a Dunnett's test at a significance level of 5%.

[2] = tested on: human pharyngeal carcinoma KB3-1 cells; assay: anti-proliferative activity against KB3-1 (WST-8); format: cell-based; conditions: KB 3-1, 72 hours culture with compound
Procedure: (§3) CA-1, which is represented by formula (II), was used as test compound, and an existing anticancer drug doxorubicin was used as a control compound. The test compound and the control compound were separately dissolved at predetermined concentrations in EtOH. The cells used were normal human umbilical vein endothelial cells (HUVEC) and human pharyngeal carcinoma KB3-1 cells.
HUVEC and KB3-1 were seeded in separate 96-well multiwell plates at 2×10^3 cells/100 μL/well and cultured in an atmosphere of 5% CO2 at 37° C. for 24 hours. Next, 1.0 μL each of the ethanol solutions containing the test compound or the control compound at various concentrations were added, and the cells were cultured under the same conditions for additional 72 hours. […] After 3-hour incubation, the amount of water-soluble formazan formed in viable cells was calorimetrically determined by measurement at OD 450 nm, and the growth inhibition ratio was calculated by comparison of the amount of formazan between the compound treatment groups and the non-treatment group. […] The cell type selectivity (Selective Index (S. I.) value) was expressed as a value resulting from division of the IC50 value against KB3-1 by the IC50 value against HUVEC.
CA-1, CA-2, CA-3, CA-4 and CA-5 were evaluated for anti-proliferative activity against normal human umbilical vein endothelial cells (HUVEC) and human pharyngeal carcinoma KB3-1 cells. […]

[3] = tested on: normal human umbilical vein endothelial cells (HUVEC); assay: anti-proliferative activity against HUVEC (WST-8); format: cell-based; conditions: for selective anti-proliferative activity against vascular endothelial cells: HUVEC versus KB3-1, FIGS. 8 to 12; for IC50: Homo sapiens, HUVEC, 72 hours culture with compound, WST-8; for S.I. (Selective Index): IC50 against KB3-1 divided by IC50 against HUVEC
Procedure: as §3
HUVEC and KB3-1 were seeded in separate 96-well multiwell plates at 2×10^3 cells/100 μL/well and cultured in an atmosphere of 5% CO2 at 37° C. for 24 hours. Next, 1.0 μL each of the ethanol solutions containing the test compound or the control compound at various concentrations were added, and the cells were cultured under the same conditions for additional 72 hours. After 72 hours, 10 μL of WST-8 (2-(2-methoxy-4-nitrophenyl)-3-(4-nitrophenyl)-5-(2,4-disulfophenyl)-2H-tetrazolium, monosodium salt) reagent was added. After 3-hour incubation, the amount of water-soluble formazan formed in viable cells was calorimetrically determined by measurement at OD 450 nm, and the growth inhibition ratio was calculated by comparison of the amount of formazan between the compound treatment groups and the non-treatment group. The anti-proliferative activities of the test compound and the control compound on each type of cells were expressed as a 50% growth inhibitory concentration (IC50 value). The cell type selectivity (Selective Index (S. I.) value) was expressed as a value resulting from division of the IC50 value against KB3-1 by the IC50 value against HUVEC.
CA-1, CA-2, CA-3, CA-4 and CA-5 were evaluated for anti-proliferative activity against normal human umbilical vein endothelial cells (HUVEC) and human pharyngeal carcinoma KB3-1 cells. The five test compounds were separately dissolved at predetermined concentrations in EtOH. HUVEC and KB3-1 were seeded in separate 96-well multiwell plates at 2×10^3 cells/100 μL/well and cultured in an atmosphere of 5% CO2 at 37° C. for 24 hrs. Next, 1.0 μL each of the ethanol solutions containing the test compound or the control compound at various concentrations were added, and the cells were cultured under the same conditions for additional 72 hours. After 72 hours, 10 μL of WST-8 (2-(2-methoxy-4-nitrophenyl)-3-(4-nitrophenyl)-5-(2,4-disulfophenyl)-2H-tetrazolium, monosodium salt) reagent was added. After 3-hour incubation, the amount of water-soluble formazan formed in viable cells was colorimetrically determined measurement at OD 450 nm, and the growth inhibition ratio was calculated by comparison of the amount of formazan between the compound treatment groups and the non-treatment group.

[4] = tested on: Mouse sarcoma S180 cells; assay: antitumor activity in mouse cancer cell transplant model after intraperitoneal administration; format: in vivo, mice; conditions: for tumor weight, % of that of the control group: intraperitoneal, once every two days, 7 times
Procedure: (§4) The test compound CA-1 was suspended at predetermined concentrations in 1% CMC. The vehicle (1% CMC) was administered to the control group.
(§5) Mouse sarcoma S180 cells were suspended at 1×10^7 cells/mL in a serum-free RPMI culture medium and the suspension was kept on ice. Then, the S180 cell suspension was subcutaneously inoculated at 1×10^6 cells/100 μL/mouse into the flanks of female ddY mice (5-week old) with an injection needle of 23G. The mice were maintained for one week for engraftment of the S180 cells. Subsequently, the test compound (5 mg/kg, 10 mg/kg and 25 mg/kg) or the vehicle (1% CMC) was intraperitoneally administered on a schedule of on every two days, 7 times in total. The antitumor activity was evaluated as follows: one day after the final administration, tumors were isolated and weighed, and then the tumor weight was compared between the test compound administration groups and the control group.

[5] = tested on: human umbilical vein endothelial cells (HUVEC); assay: migration and tubulogenesis of HUVEC; format: cell-based
[6] = tested on: Mouse sarcoma S180 cells; assay: antitumor activity in mouse cancer cell transplant model after oral administration; format: in vivo, mice; conditions: for tumor weight, % of that of the control group: oral
Procedure: as §4, §5
The test was performed in the same manner as in Example 3, except that oral administration was performed instead of intraperitoneal administration and that a 50 mg/kg administration group was included instead of the 5 mg/kg administration group.

[7] = tested on: Matrigel with proangiogenic factor bFGF (angiogenesis); assay: in vivo anti-angiogenic activity after oral administration (Matrigel, hemoglobin); set-up: species or system mice
Procedure: as §1, §2
The test was performed in the same manner as in Example 3, except that oral administration was performed instead of intraperitoneal administration and that a 5.0 mg/kg administration group was additionally included.

[8] = tested on: human umbilical vein endothelial cells (HUVEC); conditions: background art; cited from earlier work
[9] = tested on: human umbilical vein endothelial cells (HUVEC); conditions: cited from earlier work

C[C@]12C=CC3=CC4=C(CCCC4=O)O[C@H]3[C@@H]1CC[C@@H]2c1ccc2ccncc2c1 [CA-1, (3R,3aR,11aS,11bR)-3-(isoquinolin-7-yl)-3a-methyl-1,2,3,3a,9,10,11a,11b-octahydrocyclopenta[c]xanthen-7(8H)-one]
amount of hemoglobin accumulated in the Matrigel [1]: significantly reduced the amount of hemoglobin accumulated in the Matrigel to almost the same level as that of the group injected with Matrigel not supplemented with the proangiogenic factor bFGF | IC50 [2]: 10500 nM | selective anti-proliferative activity against vascular endothelial cells [3]: selectively inhibits the growth of vascular endothelial cells | IC50 [3]: 100 nM | S.I. (Selective Index) [3]: 105 | anti-proliferative activity against vascular endothelial cells, times stronger than against other cancer cells ([3]; versus other cancer cells): more than 100 times | tumor weight, % of that of the control group ([4]; 5 mg/kg): 34% | tumor weight, % of that of the control group ([4]; 10 mg/kg): 23% | tumor weight, % of that of the control group ([4]; 25 mg/kg): 17% | weight loss, diarrhea, visual abnormalities in organs ([4]; intraperitoneal, 5, 10 and 25 mg/kg groups): In no groups, weight loss or diarrhea, or visual abnormalities in organs of the mice were observed | migration and tubulogenesis of HUVEC [5]: inhibits the migration and tubulogenesis of human umbilical vein endothelial cells (HUVEC) | tumor weight, % of that of the control group ([6]; 10 mg/kg): 67% | tumor weight, % of that of the control group ([6]; 25 mg/kg): 50% | tumor weight, % of that of the control group ([6]; 50 mg/kg): 25% | weight loss, diarrhea, visual abnormalities in organs ([6]; oral, 10, 25 and 50 mg/kg groups): In no groups, weight loss or diarrhea, or visual abnormalities in organs of the mice were observed | amount of hemoglobin accumulated in the Matrigel ([7]; 50 mg/kg): reduced to almost the same level as that of the group injected with Matrigel not supplemented with the proangiogenic factor bFGF | amount of hemoglobin accumulated in the Matrigel ([7]; not less than 10 mg/kg): significantly reduced the amount of hemoglobin accumulated in the Matrigel

C[C@]12C=CC3=CC4=C(CC(CO)CC4=O)O[C@H]3[C@@H]1CC[C@@H]2c1ccc2ccncc2c1 (stereo partly drawn) [CA-2, (3R,3aR,11aS,11bR)-9-(hydroxymethyl)-3-(isoquinolin-7-yl)-3a-methyl-1,3,3a,8,9,10,11a,11b-octahydrocyclopenta[c]xanthen-7(2H)-one]
selective anti-proliferative activity against vascular endothelial cells [3]: selectively inhibits the growth of vascular endothelial cells | selective anti-proliferative activity against vascular endothelial cells ([3]; listed as (XVIII)): selective anti-proliferative activity against vascular endothelial cells in a broad range of concentration

C[C@]12C=CC3=CC4=C(CC(CN)CC4=O)O[C@H]3[C@@H]1CC[C@@H]2c1ccc2ccncc2c1 (stereo partly shown) [CA-3]
selective anti-proliferative activity against vascular endothelial cells [3]: selectively inhibits the growth of vascular endothelial cells | selective anti-proliferative activity against vascular endothelial cells ([3]; listed as (XIX)): selective anti-proliferative activity against vascular endothelial cells in a broad range of concentration

C[C@]12C=CC3=CC4=C(CC(C(=O)O)CC4=O)O[C@H]3[C@@H]1CC[C@@H]2c1ccc2ccncc2c1 (stereo partly drawn) [CA-4, (3R,3aR,11aS,11bR)-3-(isoquinolin-7-yl)-3a-methyl-7-oxo-1,2,3a,7,8,9,10,11a,11b-decahydrocyclopenta[c]xanthene-9-carboxylic acid]
selective anti-proliferative activity against vascular endothelial cells [3]: selectively inhibits the growth of vascular endothelial cells | selective anti-proliferative activity against vascular endothelial cells ([3]; listed as (XXIII)): selective anti-proliferative activity against vascular endothelial cells in a broad range of concentration

C[C@]12C=CC3=CC4=C(CCCC4=O)O[C@H]3[C@@H]1CC(=O)[C@@H]2c1ccc2ccncc2c1 [CA-5, (3R,3aS,11aS,11bR)-3-(isoquinolin-7-yl)-3a-methyl-1,3,3a,9,10,11b-hexahydrocyclopenta[c]xanthene-2,7(8H,11aH)-dione]
selective anti-proliferative activity against vascular endothelial cells [3]: selectively inhibits the growth of vascular endothelial cells | selective anti-proliferative activity against vascular endothelial cells ([3]; listed as (LIV)): selective anti-proliferative activity against vascular endothelial cells in a broad range of concentration

CN(C)[C@H]1C[C@@]23CC[C@@]4(O2)C(=CC[C@]2(C)[C@@H](c5ccc6ccncc6c5)CC[C@H]24)C=C3[C@@H](O)[C@@H]1O [cortistatin A]
migration and tubulogenesis of HUVEC [8]: inhibits the migration and tubulogenesis of HUVEC | IC50 ([9]; background art, read-out: IC50 against HUVEC): 1.8 nM | anti-proliferative activity against HUVEC, times stronger than against other cancer cells ([9]; versus other cancer cells): more than 3000 times

COc1cccc2c1C(=O)c1c(O)c3c(c(O)c1C2=O)C[C@@](O)(C(=O)CO)C[C@@H]3O[C@H]1C[C@H](N)[C@H](O)[C@H](C)O1 [doxorubicin, reference compound]
IC50 [2]: 360 nM | IC50 [3]: 130 nM | S.I. (Selective Index) [3]: 2.7
